# Experimental data taken from ChEMBL document CHEMBL5321272 (J Med Chem, 2023).
# The source made the active and inactive calls. The rule behind the calls is not given here.
# How the values were obtained:
# BaF3 [1] = test: cells; conditions: Mus musculus, BaF3, 72 h
# Description: Antiproliferative activity against mouse BaF3 cells harboring FLT3-ITD-N701K mutation assessed as reduction in cell viability incubated for 72 hrs by CellTiter 96 Aqueous One Solution Cell Proliferation Assay
# [2] = target: T1, Serine/threonine-protein kinase Chk1 (Homo sapiens) (UniProt O14757); test: Inhibition of CHK1 in human MV4-11 cells assessed as upregulation of p21 protein expression measured after 90 mins by western blot analysis; type: cell-based; conditions: dose 50-200 nM
# T1 sequence (whole entry): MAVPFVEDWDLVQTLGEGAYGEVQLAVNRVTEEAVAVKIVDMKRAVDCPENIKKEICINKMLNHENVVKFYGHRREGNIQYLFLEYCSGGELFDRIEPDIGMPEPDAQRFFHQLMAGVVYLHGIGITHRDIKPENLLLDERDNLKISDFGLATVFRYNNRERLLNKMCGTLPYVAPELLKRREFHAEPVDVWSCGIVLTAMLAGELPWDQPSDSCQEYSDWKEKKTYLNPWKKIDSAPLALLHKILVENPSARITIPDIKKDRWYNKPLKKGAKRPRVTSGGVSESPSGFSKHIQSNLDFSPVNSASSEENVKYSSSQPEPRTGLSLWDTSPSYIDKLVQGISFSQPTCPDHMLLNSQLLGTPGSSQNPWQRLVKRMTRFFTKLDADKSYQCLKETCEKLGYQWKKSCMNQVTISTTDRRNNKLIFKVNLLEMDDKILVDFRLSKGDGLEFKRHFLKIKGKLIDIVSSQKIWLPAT
# [3] = target: Mitogen-activated protein kinase kinase kinase 7 (Homo sapiens, UniProt O43318); test: Inhibition of TAK1 (unknown origin) by HTRF assay
# [4] = Selectivity ratio of IC50 for LYN (unknown origin) to IC50 for FLT3-ITD mutant (unknown origin)
# [5] = Acute toxicity in ICR mouse assessed as body weight loss at 300 mg/kg, ig and measured for 7 days; type: organism-based; conditions: in vivo, po, 168 h, time 7 day
# BaF3 [6] = test: Antiproliferative activity against mouse BaF3 cells harboring FLT3 D835V mutant assessed as reduction in cell viability incubated for 72 hrs by CellTiter 96 Aqueous One Solution Cell Proliferation Assay; type: functional, cell-based
# [7] = Acute toxicity in ICR mouse assessed as morphological changes in lungs at 300 mg/kg, ig and measured for 7 days by Hematoxylin-Eosin staining based analysis; type: organism-based; conditions: in vivo, po, 168 h, time 7 day
# [8] = MRT (infinity) in ICR mouse at 10 mg/kg, po; type: ADME, organism-based; conditions: in vivo
# [9] = AUC (infinity) in ICR mouse at 10 mg/kg, po; type: ADME, organism-based; set-up: dose 10 mg/kg, route po; conditions: in vivo
# [10] = Selectivity ratio of IC50 for P70S6K (unknown origin) to IC50 for FLT3-ITD mutant (unknown origin)
# [11] = target: Receptor-type tyrosine-protein kinase FLT3 (Homo sapiens, UniProt P36888); test: Inhibition of wild type FLT3 (unknown origin) using peptide substrate TK-S and ATP as substrate incubated for 1 hr by HTRF assay
# MM1.S = test: Antiproliferative activity against human MM1.S cells assessed as reduction in cell viability incubated for 72 hrs by CellTiter 96 Aqueous One Solution Cell Proliferation Assay; type: functional, cell-based
# [12] = Selectivity ratio of IC50 for JAK3 (unknown origin) to IC50 for FLT3-ITD mutant (unknown origin)
# BaF3 [13] = test: Antiproliferative activity against mouse BaF3 cells harboring FLT3 F691L mutant assessed as reduction in cell viability incubated for 72 hrs by CellTiter 96 Aqueous One Solution Cell Proliferation Assay; type: functional, cell-based
# [14] = Selectivity ratio of IC50 for IGF1R (unknown origin) to IC50 for FLT3-ITD mutant (unknown origin)
# [15] = target: Hepatocyte growth factor receptor (Homo sapiens, UniProt P08581); test: Inhibition of MET (unknown origin) by HTRF assay
# MOLM-13 [16] = test: Antitumor activity against human MOLM-13 cells xenografted in NSG mouse assessed as animal's survival rate at 30 mg/kg, po qd for 26 days (reference value: 17 days); type: functional; conditions: time 26 day
# MV4-11 [17] = test: cells; conditions: Homo sapiens, MV4-11, 72 h
# Description: Antiproliferative activity against human MV4-11 cells assessed as reduction in cell viability incubated for 72 hrs by CellTiter 96 Aqueous One Solution Cell Proliferation Assay
# Z-138 = test: Antiproliferative activity against human Z138 cells assessed as reduction in cell viability incubated for 72 hrs by CellTiter 96 Aqueous One Solution Cell Proliferation Assay; type: functional, cell-based; conditions: Z-138, 72 h
# [18] = Tmax in ICR mouse at 10 mg/kg, po; type: ADME, organism-based; conditions: in vivo
# [19] = Selectivity ratio of IC50 for Aurora kinase A (unknown origin) to IC50 for FLT3-ITD mutant (unknown origin)
# [20] = Acute toxicity in ICR mouse assessed as morphological changes in heart at 300 mg/kg, ig and measured for 7 days by Hematoxylin-Eosin staining based analysis; type: organism-based; conditions: in vivo, po, 168 h, time 7 day
# JeKo-1 = test: Antiproliferative activity against human JeKo-1 cells assessed as reduction in cell viability incubated for 72 hrs by CellTiter 96 Aqueous One Solution Cell Proliferation Assay; type: functional, cell-based; conditions: JeKo-1, 72 h
# [21] = Selectivity ratio of IC50 for PAK1 (unknown origin) to IC50 for FLT3-ITD mutant (unknown origin)
# [22] = Toxicity against nu/nu mouse xenografted with human MV4-11 cells assessed as body weight changes at 1 to 3 mg/kg, po qd for 22 days; type: organism-based; conditions: in vivo, 528 h, dose 1-3 mg/kg, time 22 day
# MV4-11 [23] = test: Antitumor activity against human MV4-11 cells xenografted in nu/nu mouse assessed as reduction in tumor weight at 3 mg/kg, po qd for 22 days; type: functional, organism-based; conditions: time 22.0 day
# [24] = Selectivity ratio of IC50 for PKA (unknown origin) to IC50 for FLT3-ITD mutant (unknown origin)
# MOLM-13 [25] = test: Antitumor activity against human MOLM-13 cells xenografted in NSG mouse assessed as prolongation of animal's survival at 15 mg/kg, po qd for 26 days; type: functional, organism-based; conditions: time 26.0 day
# [26] = Selectivity ratio of IC50 for BTK (unknown origin) to IC50 for FLT3-ITD mutant (unknown origin)
# [27] = target: Voltage-gated inwardly rectifying potassium channel KCNH2 (Homo sapiens, UniProt Q12809); test: Inhibition of hERG expressed in HEK293 cells assessed as fast channel deactivation at 100 uM by whole cell patch clamp analysis; type: toxicity, cell-based; conditions: hek293, 100 µM
# [28] = target: Receptor-type tyrosine-protein kinase FLT3 (Homo sapiens, UniProt P36888, D835Y)
# Description: Inhibition of FLT3 D835Y mutant (unknown origin) using peptide substrate TK-S and ATP as substrate incubated for 1 hr by HTRF assay
# [29] = target: Receptor-type tyrosine-protein kinase FLT3 (Homo sapiens) (UniProt P36888); test: Inhibition of FLT3 in human MV4-11 cells assessed as inhibition of STAT5 phosphorylation at Tyr694 residue at 20 nM measured after 90 mins by western blot analysis; type: cell-based
# [30] = Acute toxicity in ICR mouse assessed as morphological changes in spleen at 300 mg/kg, ig and measured for 7 days by Hematoxylin-Eosin staining based analysis; type: organism-based; conditions: in vivo, po, 168 h, time 7 day
# [31] = target: Casein kinase I isoform alpha (Homo sapiens, UniProt P48729); test: Inhibition of CK1 alpha (unknown origin) by HTRF assay
# Chain of Casein kinase I isoform alpha (P48729 whole entry, canonical isoform): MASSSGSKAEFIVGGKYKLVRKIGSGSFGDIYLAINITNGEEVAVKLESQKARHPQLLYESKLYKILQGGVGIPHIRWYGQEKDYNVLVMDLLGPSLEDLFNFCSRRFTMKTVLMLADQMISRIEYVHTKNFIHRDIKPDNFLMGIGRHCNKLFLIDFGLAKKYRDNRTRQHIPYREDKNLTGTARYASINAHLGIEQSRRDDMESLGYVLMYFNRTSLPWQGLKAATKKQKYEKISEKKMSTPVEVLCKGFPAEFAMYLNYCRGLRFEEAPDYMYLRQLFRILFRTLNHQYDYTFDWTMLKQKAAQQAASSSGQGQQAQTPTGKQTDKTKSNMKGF
# Chain of Voltage-gated inwardly rectifying potassium channel KCNH2 (Q12809 whole entry): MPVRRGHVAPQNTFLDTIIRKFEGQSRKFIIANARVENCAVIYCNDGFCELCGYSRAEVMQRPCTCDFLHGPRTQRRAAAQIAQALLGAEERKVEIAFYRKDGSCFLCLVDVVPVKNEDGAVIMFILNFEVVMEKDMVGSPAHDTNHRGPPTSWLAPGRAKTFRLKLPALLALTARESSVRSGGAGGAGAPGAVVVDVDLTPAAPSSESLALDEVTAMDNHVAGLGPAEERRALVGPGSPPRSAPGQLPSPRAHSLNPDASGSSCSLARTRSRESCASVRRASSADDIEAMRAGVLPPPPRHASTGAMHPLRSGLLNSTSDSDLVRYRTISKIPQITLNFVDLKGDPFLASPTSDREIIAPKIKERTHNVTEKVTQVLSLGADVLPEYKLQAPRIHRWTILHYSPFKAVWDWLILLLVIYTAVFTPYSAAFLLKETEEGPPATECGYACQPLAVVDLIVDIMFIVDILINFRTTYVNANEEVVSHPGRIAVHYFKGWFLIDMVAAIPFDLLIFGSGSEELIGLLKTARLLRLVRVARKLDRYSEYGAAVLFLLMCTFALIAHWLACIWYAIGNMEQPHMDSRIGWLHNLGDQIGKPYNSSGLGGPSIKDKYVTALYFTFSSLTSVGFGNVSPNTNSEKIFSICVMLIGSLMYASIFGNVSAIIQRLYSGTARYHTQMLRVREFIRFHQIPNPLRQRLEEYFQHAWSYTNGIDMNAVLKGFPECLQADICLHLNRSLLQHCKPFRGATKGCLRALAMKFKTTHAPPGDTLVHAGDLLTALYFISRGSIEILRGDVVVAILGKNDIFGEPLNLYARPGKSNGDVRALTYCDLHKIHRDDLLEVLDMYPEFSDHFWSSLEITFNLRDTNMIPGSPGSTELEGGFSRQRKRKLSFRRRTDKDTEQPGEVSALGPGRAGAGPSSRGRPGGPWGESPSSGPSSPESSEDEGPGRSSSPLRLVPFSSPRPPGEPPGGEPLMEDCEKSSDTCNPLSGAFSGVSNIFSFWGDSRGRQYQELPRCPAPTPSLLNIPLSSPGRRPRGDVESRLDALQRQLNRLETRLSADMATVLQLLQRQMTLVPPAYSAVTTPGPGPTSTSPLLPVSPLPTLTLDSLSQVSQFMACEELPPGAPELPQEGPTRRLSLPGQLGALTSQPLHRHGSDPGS
# Chain of Hepatocyte growth factor receptor (P08581 whole entry): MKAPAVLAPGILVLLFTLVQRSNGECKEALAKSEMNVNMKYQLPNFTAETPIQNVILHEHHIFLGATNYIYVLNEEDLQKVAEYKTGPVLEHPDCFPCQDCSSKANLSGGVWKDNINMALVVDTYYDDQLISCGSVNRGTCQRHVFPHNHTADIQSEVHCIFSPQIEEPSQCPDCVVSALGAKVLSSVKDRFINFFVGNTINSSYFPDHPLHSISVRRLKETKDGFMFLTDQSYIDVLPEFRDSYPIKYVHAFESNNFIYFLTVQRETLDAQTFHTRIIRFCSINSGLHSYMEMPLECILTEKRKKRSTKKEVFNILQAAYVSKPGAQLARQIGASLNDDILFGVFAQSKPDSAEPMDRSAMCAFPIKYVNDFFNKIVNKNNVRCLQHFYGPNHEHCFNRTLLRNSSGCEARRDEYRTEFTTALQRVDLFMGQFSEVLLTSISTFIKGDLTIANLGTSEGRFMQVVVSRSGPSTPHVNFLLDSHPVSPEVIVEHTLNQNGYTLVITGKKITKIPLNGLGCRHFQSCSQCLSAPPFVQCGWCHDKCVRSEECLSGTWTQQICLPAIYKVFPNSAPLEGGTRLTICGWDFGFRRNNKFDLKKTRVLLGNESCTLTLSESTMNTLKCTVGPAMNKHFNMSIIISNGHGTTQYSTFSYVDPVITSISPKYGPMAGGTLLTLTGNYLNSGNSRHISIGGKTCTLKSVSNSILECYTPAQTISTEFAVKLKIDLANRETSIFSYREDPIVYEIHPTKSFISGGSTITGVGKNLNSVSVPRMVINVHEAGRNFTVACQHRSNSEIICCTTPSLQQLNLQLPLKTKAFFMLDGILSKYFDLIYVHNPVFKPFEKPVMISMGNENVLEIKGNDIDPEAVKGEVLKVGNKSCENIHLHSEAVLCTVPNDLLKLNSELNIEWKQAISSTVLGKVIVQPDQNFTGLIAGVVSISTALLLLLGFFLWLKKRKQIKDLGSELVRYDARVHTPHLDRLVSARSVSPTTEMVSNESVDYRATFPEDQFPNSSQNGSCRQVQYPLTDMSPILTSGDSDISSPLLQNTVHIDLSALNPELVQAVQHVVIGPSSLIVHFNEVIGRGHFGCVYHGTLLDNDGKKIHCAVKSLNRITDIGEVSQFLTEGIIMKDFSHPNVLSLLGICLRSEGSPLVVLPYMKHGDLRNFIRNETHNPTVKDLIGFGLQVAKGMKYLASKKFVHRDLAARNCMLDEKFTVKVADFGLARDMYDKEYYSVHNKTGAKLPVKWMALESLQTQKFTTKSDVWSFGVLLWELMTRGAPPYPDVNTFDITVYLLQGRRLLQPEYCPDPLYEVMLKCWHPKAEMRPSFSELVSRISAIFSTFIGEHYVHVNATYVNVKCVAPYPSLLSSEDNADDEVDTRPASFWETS
# Chain of Mitogen-activated protein kinase kinase kinase 7 (O43318 whole entry): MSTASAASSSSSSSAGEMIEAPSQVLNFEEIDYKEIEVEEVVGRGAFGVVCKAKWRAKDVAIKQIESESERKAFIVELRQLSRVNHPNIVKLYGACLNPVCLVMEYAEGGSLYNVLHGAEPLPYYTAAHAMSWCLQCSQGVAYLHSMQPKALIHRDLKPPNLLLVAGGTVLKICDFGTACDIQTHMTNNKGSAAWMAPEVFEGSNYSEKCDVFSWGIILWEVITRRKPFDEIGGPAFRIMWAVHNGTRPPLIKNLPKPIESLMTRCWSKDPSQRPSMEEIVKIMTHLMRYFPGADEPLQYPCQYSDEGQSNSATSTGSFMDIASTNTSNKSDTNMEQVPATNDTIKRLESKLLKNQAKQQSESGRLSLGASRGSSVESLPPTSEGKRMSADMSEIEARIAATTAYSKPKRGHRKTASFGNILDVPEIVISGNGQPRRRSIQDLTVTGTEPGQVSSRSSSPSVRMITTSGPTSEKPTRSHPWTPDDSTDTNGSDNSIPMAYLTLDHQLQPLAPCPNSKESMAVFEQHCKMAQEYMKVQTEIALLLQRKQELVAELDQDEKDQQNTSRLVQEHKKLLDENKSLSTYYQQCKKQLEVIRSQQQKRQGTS
smiles,measurement,setting,value
CC(C)(O)CC(=O)N1CCc2cc(Nc3ncc(C(F)(F)F)c(N[C@H]4CC[C@@H](N)CC4)n3)ccc2C1,IC50,BaF3 [1],0.0082 µM
same,inhibition,[2],Dose-Dependent Effect
same,IC50,[3],0.0643 µM
same,Ratio IC50,[4],> 100
same,Activity,[5],Non-Toxic
same,Activity,BaF3 [6],Active
same,Activity,[7],Non-Toxic
same,MRT inf,[8],5.73 h
same,AUC(0-inf),[9],1660 ng·h/mL
same,Ratio IC50,[10],> 100
same,IC50,[11],< 0.01 µM
same,Activity,MM1.S,inactive
same,Ratio IC50,[12],> 100
same,Activity,BaF3 [13],Active
same,Ratio IC50,[14],> 100
same,IC50,[15],> 10 µM
same,Survival,MOLM-13 [16],22 days
same,IC50,MV4-11 [17],0.00021 µM
same,IC50,Z-138,0.115 µM
same,Tmax,[18],2 h
same,Ratio IC50,[19],> 100
same,Activity,[20],Non-Toxic
same,IC50,JeKo-1,0.26 µM
same,Ratio IC50,[21],> 100
same,Activity,[22],Non-Toxic
same,Activity,MV4-11 [23],Active
same,Ratio IC50,[24],> 100
same,Activity,MOLM-13 [25],inactive
same,Ratio IC50,[26],> 100
same,inhibition (INH),[27],Active
same,IC50,[28],0.00108 µM
same,inhibition,[29],100%
same,Activity,[30],Non-Toxic
same,IC50,[31],> 10 µM
